From paper PMC4527731, “Calcineurin Undergoes a Conformational Switch Evoked via Peptidyl-Prolyl Isomerization” (PLoS ONE, 2015)

B1: RCAN3-derived PxIxIT-containing peptide (amino acids 183–203) (peptide)
peptide: Ac-KYELHAGTESTPSVVVHVCES-NH2
notes: source: synthetic peptide, bought: Peptide 2.0 Company

Tests used:
[1] = system: CNA (human CNAα catalytic domain); assay: Fluorescence polarization competition of CF-SPRIEIT-CNA complex; assay type: binding; conditions: 10 nM CF-labeled SPRIEIT, 10 μM CNA, unlabeled competitor pre-incubated 15 min at increasing concentrations, room temperature, ex 485 nm, em 535 nm, two independent experiments in triplicates (Fig 6a)
Description: Peptides were purchased from the Peptide 2.0 Company (Chantilly, VA) and synthesized as acetylated N-terminal and C-terminal amides for the unlabeled peptides and N-carboxyfluorescein (CF) and C-terminal amide for the labelled peptide. The sequences of the peptides used are the following: […] for the RCAN^183–203 peptide; […] for the cis-CNA derived peptide; and […] for the NFATc2-SPRIEIT (SPRIEIT) peptide. All peptides were resuspended in 100% DMSO at 10 mM. Cyclosporin A (CsA) was obtained from Sandoz. Ionomycin (Io) sodium salt and Phorbol 12-myristate 13-acetate sodium salt (PMA) were obtained from Sigma. The anti-calcineurin A antibody was purchased from BD Biosciences and the anti-Flag M2 antibody was purchased from Sigma. The protease and phosphatase inhibitor cocktails were from Calbiochem.
Expression, purification and isolation of the CNAα domain was performed as previously described. […]
Competition assays were performed as described. […] Unlabeled competitor peptides were pre-incubated with CNA at increasing concentrations for 15 min before adding the fluorescence labeled peptide. Experiments were performed in a OptiPlate black 384-well-flat-bottom plates (PerkinElmer Life Sciences, Waltham, MA) and measured using a Wallac VICTOR (TM) X5 2030 Multilabel Reader (PerkinElmer Life Sciences) with excitation and emission wavelengths of 485 nm and 535 nm respectively. […]

[2] = system: Endogenous CNA / GST-RCAN3 interaction; assay: GST-RCAN3 pull-down competition assay; assay type: binding; conditions: HEK 293T lysate, peptide at increasing concentrations for 30 min, then GST–RCAN3 beads 90 min at 4°C (Fig 6b)
Description: (§1) In GST-RCAN3 pull-down competition assays, HEK 293T cells were lysed in co-immunoprecipitation buffer (50 mM Tris–HCl, pH 7.5, 100 mM NaCl, 2 mM CaCl2, 5 mM MgCl2, 1% IGEPAL, 1 mM DTT, 2 mM PMSF and protease and phosphatase inhibitor cocktails) and the CNA- and the RCAN3-derived peptides containing a PxIxIT sequence were added to the extracts at the indicated concentrations for 30 min. Then, the soluble extracts were incubated with GST–RCAN3 bound to Glutathione Sepharose beads for 90 min at 4°C. After extensive washing, co-precipitated proteins were eluted by resuspension in 2× Laemmli buffer and boiled for 10 min. For GST–NFATc2 pull-down competition assays, HEK 293T cells transfected with FLAG–CNA (2–389) were lysed in a buffer containing 50 mM Tris–HCl, pH 8, 100 mM NaCl, 1.5 mM CaCl2, 6 mM MgCl2, 0.2% TX-100, 1 mM PMSF and protease and phosphatase inhibitor cocktails. Soluble extracts were incubated with GST–NFATc2 bound to Glutathione Sepharose beads for 60 min at 4°C.

[3] = system: Flag-CNA 2–389 / GST-NFATc2 interaction; assay: GST-NFATc2 pull-down competition assay; assay type: binding; conditions: HEK 293T cells transfected with FLAG–CNA (2–389); soluble extracts with GST–NFATc2 beads 60 min at 4°C; increasing peptide concentrations (Fig 6c)
Description: as §1

[4] = system: Endogenous CN in HEK 293T cells; assay: Inhibition of endogenous CN activity by CsA in NFATc-luciferase reporter assay; assay type: cell-based; conditions: 1 μM CsA, 30 min before stimulation with Io/PMA/Ca^2+ for 6 hours
Description: Flag-hCNAα mutants were performed by PCR using CN specific primers (Table 2). ΔNIR mutant lacks the CNA PXIXIT binding region VMNIR ranging from amino acids 328 to 332. All Flag-CNA constructs bear the Y341F mutation to achieve CsA resistance unless for the specified wt. Luciferase gene assays were performed in HEK 293T cells transfected with 100 ng of 3xNFAT-luc plasmid, 100 ng of pBJ5-mCNB, 1 ng of pRLNull as an internal transfection control and 400 ng of the indicated Flag-hCNAα mutants constructs. Stimulation was achieved by treating the cells with.1 μM ionomycin, 10 nM PMA and 10 mM CaCl2. Endogenous CN activity was abolished by treating cells with 1 μM Cyclosporin A (CsA) 30 min prior to stimulation. FK506 was used as a positive control for CsA-resistant CN. After 6h of cell stimulation, 10 μl of cell extract were analyzed for luciferase gene expression using the Dual-Luciferase Reporter Assay (Promega) following the manufacturer’s protocol on a multiplate luminometer (FLUOstar Optima, BMG). Luciferase units were normalized to densitometric data of 10 μl of cell extract analyzed by western blot. Absence of cell stimulation is shown with a minus symbol (-). Three experiments were performed with triplicates. Stimulation of the Y341F mutant was considered as 100% value.

[5] = target: T1, catalytic domain of human CNAα (residues 2–347) (human, UniProt Q08209-1 2-347); assay: fluorescence polarisation; competition: 10 nM CF-labeled SPRIEIT peptide and 10 μM CNA; unlabeled competitor peptides pre-incubated with CNA at increasing concentrations for 15 min; room temperature; conditions: both partners purified
T1 construct: calcineurin catalytic subunit A, alpha isoform, human, NCBI NP_000935.1, catalytic domain residues 2-347; also called CNAα catalytic domain; trans-CNA; source: from the pGEX-6P-1-CNAα plasmid
T1 sequence (Q08209 2-347): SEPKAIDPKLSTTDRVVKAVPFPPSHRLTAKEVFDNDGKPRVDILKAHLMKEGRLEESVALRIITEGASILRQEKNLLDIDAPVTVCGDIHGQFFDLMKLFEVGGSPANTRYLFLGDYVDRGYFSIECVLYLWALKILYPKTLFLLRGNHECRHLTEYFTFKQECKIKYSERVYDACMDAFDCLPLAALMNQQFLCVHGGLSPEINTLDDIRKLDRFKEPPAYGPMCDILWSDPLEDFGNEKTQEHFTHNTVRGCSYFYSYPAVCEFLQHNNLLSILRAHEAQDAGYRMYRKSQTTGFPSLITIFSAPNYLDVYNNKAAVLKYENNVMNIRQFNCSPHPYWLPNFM

Molecule | interference with CN–SPRIEIT peptide interaction (fluorescence polarization competition) [1] | interference with CN–GST-RCAN3 interaction (pull down) [2] | interference with CN–GST-NFATc2 interaction (pull down) [3] | endogenous CN activity after CsA treatment [4] | binding result [5]
KYELHAGTESTPSVVVHVCES [R3^183-203, RCAN3-derived PxIxIT-containing peptide (amino acids 183–203)] | able to disrupt CN interaction with proteins containing a PxIxIT motif | able to disrupt CN interaction with proteins containing a PxIxIT motif | able to disrupt CN interaction with proteins containing a PxIxIT motif |  | 
NNKAAVLKYE | does not interfere with high affinity interactions | does not interfere with high affinity interactions | does not interfere with high affinity interactions |  | 
Cyclosporin A [CsA] |  |  |  | abolished | 
B1 |  |  |  |  | binds
